Data on 1 compound can be found in patent US8454986B2, “Silver nanoparticles with specific surface area and a method for producing them” (Janssen Pharmaceutica N.V., priority 2008, dated 2013).

What all share (type): cell-based
The subject of one assay is Aspergillus niger. Nature of the assay: Minimal inhibitory concentration, spore culture. The conditions noted are these: mold.
A further assay has as its system Candida albicans. Put plainly: Minimal inhibitory concentration, macrodilution method. The conditions noted are these: yeast; 24 h, 30° C. The text has this: (§1) For the determination of the minimal inhibitory concentration (MIC) of nanosilver against different bacteria and fungi, i.e. the lowest concentration at which these micro-organisms show an inhibition of growth, the following protocol was used: • Journal of Antimicrobial Chemotherapy Supplement (JAC [2001] 48, Suppl. S1), March 2006, Chapter 2: Determination of minimal inhibitory concentrations; Macrodilution method.
(§2) Cultures of Staphylococcus aureus, Pseudomonas aeruginosa and Candida albicans were grown overnight and diluted to 150×10^6 bacterial cells or 5×10^6 yeast cells per mL (according to an optical density measured at 610 nm). These stock solutions were further diluted 500 times, […]. The final culture was then two times diluted in the final microtiter plate, resulting in a final dilution of 1:1000.
(§3) The test compound was diluted into the microtiter cultures at a concentration range from 0.5 to 470 mg/L Ag. The microtiter plates were then incubated at 30° C. on a shaker. After 24 h the plates were taken out of the incubation oven and growth was compared with the control row, both visually and by OD measurement at 610 nm.

The subject of the next assay is Pseudomonas aeruginosa. The assay is described as above. The conditions noted are these: Gram negative; 24 h, 30° C.
Excerpt: as §1, §2, §3

The test system of the next assay is Staphylococcus aureus. Described as above. The conditions noted are these: Gram positive; 24 h, 30° C.
Excerpt: as §1, §2, §3

In the case of `O=[N+]([O-])[O-].[Ag+]` [silver nitrate], the “Minimal Inhibitory Concentration (MIC) Aspergillus niger” value with Aspergillus niger is given as 25 mg Ag/L. The “Minimal Inhibitory Concentration (MIC) Candida albicans” value in the assay on Candida albicans is recorded as 12.5 mg Ag/L. In addition, the “Minimal Inhibitory Concentration (MIC) Pseudomonas aeruginosa” value in the assay with Pseudomonas aeruginosa is recorded as 6.3 mg Ag/L. For the same compound, the “Minimal Inhibitory Concentration (MIC) staphylococcus aureus” value in the assay on Staphylococcus aureus is given as 12.5 mg Ag/L.
